From ChEMBL document CHEMBL1201862, “PubChem BioAssay data set” (2004)
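Grown in 96-well plates, cells were treated for 48 hours with each compound at five concentrations. Insufficient inhibition: endpoint recorded as highest concentration tested. GI50 marks 50% less growth.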 Active and inactive are the calls of the source. No stated cut-off is given here; in the data, active = GI50 up to about 1.1 µM and inactive = higher.

Assays:
Experiment in all cases: DTP human tumour cell line panel, 48 h
[1] = test system: NCI-H226
[2] = test system: SF-539
[3] = test system: SR
[4] = test system: A498
[5] = test system: SW-620
[6] = test system: LOX IMVI
[7] = test system: HOP-62
[8] = test system: OVCAR-5
[9] = test system: EKVX
[10] = test system: SNB-19
[11] = test system: OVCAR-8
[12] = test system: NCI-H522
[13] = test system: Malme-3M
[14] = test system: A549
[15] = test system: UACC-257
[16] = test system: RPMI-8226

Row | Compound | GI50 [1] | GI50 [2] | GI50 [3] | GI50 [4] | GI50 [5] | GI50 [6] | GI50 [7] | GI50 [8] | GI50 [9] | GI50 [10] | GI50 [11] | GI50 [12] | GI50 [13] | GI50 [14] | GI50 [15] | GI50 [16]
1 | O=[N+]([O-])C1Cc2ccccc2OC1c1ccccc1 (stereo unspecified) | > 100 µM (inactive) | 31.2 µM (inactive) | 15.3 µM (inactive) | > 100 µM (inactive) | > 100 µM (inactive) | 15.3 µM (inactive) | 33.5 µM (inactive) | > 100 µM (inactive) | > 100 µM (inactive) | 41.9 µM (inactive) | 89.7 µM (inactive) | 26.6 µM (inactive) | > 100 µM (inactive) | > 100 µM (inactive) | > 100 µM (inactive) | 
2 | O=C(CC(=O)Nc1ccccc1O)Nc1ccccc1O | 63.1 µM (inactive) | 19.1 µM (inactive) |  | > 100 µM (inactive) | 4.6 µM (inactive) |  | 80.9 µM (inactive) | 59.4 µM (inactive) | > 100 µM (inactive) | > 100 µM (inactive) | 14.2 µM (inactive) | 7.48 µM (inactive) | 22.8 µM (inactive) | 29.9 µM (inactive) | 15.5 µM (inactive) | 5.13 µM (inactive)
3 | CCOC(=O)c1ccc(/C(C)=N/NC(N)=S)cc1 |  | > 100 µM (inactive) |  | > 100 µM (inactive) | > 100 µM (inactive) | > 100 µM (inactive) | > 100 µM (inactive) |  | 2.74 µM (inactive) | > 100 µM (inactive) | > 100 µM (inactive) |  |  | > 100 µM (inactive) |  | > 100 µM (inactive)
4 | COc1ccc(-c2cn3ccsc3n2)cc1 | > 100 µM (inactive) | 75.9 µM (inactive) | 15.9 µM (inactive) |  | 11.2 µM (inactive) | 36.2 µM (inactive) | > 100 µM (inactive) | > 100 µM (inactive) | > 100 µM (inactive) | > 100 µM (inactive) | > 100 µM (inactive) | 65.3 µM (inactive) | > 100 µM (inactive) | > 100 µM (inactive) | > 100 µM (inactive) | 22.3 µM (inactive)
5 | CCOC(=O)[C@@]12C(C)=CC(=O)O[C@]1(C)C1C(=O)NC(=O)C12 (stereo partly specified) | 7.16 µM (inactive) | > 100 µM (inactive) |  | > 100 µM (inactive) | > 100 µM (inactive) | > 100 µM (inactive) | > 100 µM (inactive) |  | > 100 µM (inactive) | > 100 µM (inactive) | > 100 µM (inactive) |  | > 100 µM (inactive) | > 100 µM (inactive) | > 100 µM (inactive) | > 100 µM (inactive)
6 | O=[N+]([O-])c1ccccc1C1N2CCCCC2[C@@H]2c3[nH]c4ccccc4c3CCN12 (stereo partly specified) |  | 12.2 µM (inactive) |  | 12.6 µM (inactive) | 11.4 µM (inactive) |  | 14.8 µM (inactive) | 19.1 µM (inactive) | 20.7 µM (inactive) | 14.9 µM (inactive) | 16.8 µM (inactive) |  |  | 9.84 µM (inactive) | 13.7 µM (inactive) | 10.9 µM (inactive)
7 | CN(C)/C=N\c1nc(=O)n(C2CCC(CO)O2)cc1F (stereo unspecified) | > 100 µM (inactive) |  |  |  | > 100 µM (inactive) | > 100 µM (inactive) | > 100 µM (inactive) | > 100 µM (inactive) | > 100 µM (inactive) | > 100 µM (inactive) | > 100 µM (inactive) | > 100 µM (inactive) | > 100 µM (inactive) | > 100 µM (inactive) | > 100 µM (inactive) | > 100 µM (inactive)
8 | CCCCCCCCCC1CC(=O)OC2=C1C(=O)CCC2 (stereo unspecified) | > 100 µM (inactive) | > 100 µM (inactive) | > 100 µM (inactive) |  | > 100 µM (inactive) | > 100 µM (inactive) | > 100 µM (inactive) | > 100 µM (inactive) | > 100 µM (inactive) | > 100 µM (inactive) | > 100 µM (inactive) | > 100 µM (inactive) | > 100 µM (inactive) | > 100 µM (inactive) | > 100 µM (inactive) | > 100 µM (inactive)
9 | COC(=O)C1=C(c2ccc3c(c2)OCO3)OC(c2cc(OC)c(OC)c(OC)c2)C1 (stereo unspecified) | 3.81 µM (inactive) | 5.11 µM (inactive) | 0.667 µM (active) | 2.43 µM (inactive) | 0.557 µM (active) | 5.68 µM (inactive) | > 100 µM (inactive) | > 100 µM (inactive) | 2.82 µM (inactive) | 1.59 µM (inactive) | 4.17 µM (inactive) |  | 4.74 µM (inactive) | 5.77 µM (inactive) | 7.18 µM (inactive) | 8.87 µM (inactive)
10 | Clc1ccc(Cc2nc3ccccc3s2)c(Cl)c1 | 20.4 µM (inactive) | 3.65 µM (inactive) |  | 17.2 µM (inactive) | 21.8 µM (inactive) | 16.7 µM (inactive) | 18.3 µM (inactive) | 19.3 µM (inactive) | 23.6 µM (inactive) | 24.3 µM (inactive) | 19.8 µM (inactive) | 15.7 µM (inactive) | 16.9 µM (inactive) | 19.7 µM (inactive) | 17.5 µM (inactive) | 17.7 µM (inactive)
11 | O=[N+]([O-])c1ccc(C2=Nc3ccccc3[S+]([O-])C(c3ccccc3)C2)cc1 (stereo unspecified) | 16.1 µM (inactive) | 20.2 µM (inactive) |  |  | 23.1 µM (inactive) | 15.2 µM (inactive) | 26.7 µM (inactive) | 25.8 µM (inactive) | 22.4 µM (inactive) | 20 µM (inactive) | 32.4 µM (inactive) | 16.7 µM (inactive) | 44.8 µM (inactive) | 27.9 µM (inactive) | 22.1 µM (inactive) | 5.56 µM (inactive)
12 | CNc1ccc([N+](=O)[O-])c2c(NCCCN(C)C)ccnc12 | > 100 µM (inactive) | > 100 µM (inactive) | > 100 µM (inactive) |  | > 100 µM (inactive) | > 100 µM (inactive) | > 100 µM (inactive) | > 100 µM (inactive) | > 100 µM (inactive) | > 100 µM (inactive) | > 100 µM (inactive) | > 100 µM (inactive) | > 100 µM (inactive) | > 100 µM (inactive) | > 100 µM (inactive) | > 100 µM (inactive)
13 | O=C(c1ccccc1)c1ccc2cccc(O)c2n1 | 38.5 µM (inactive) | 32.6 µM (inactive) | 15.4 µM (inactive) |  | 13.5 µM (inactive) | 11.9 µM (inactive) | 52.4 µM (inactive) | 60.8 µM (inactive) | 24.4 µM (inactive) | 31.1 µM (inactive) | 23.6 µM (inactive) | 8.38 µM (inactive) | 36.1 µM (inactive) | 33 µM (inactive) |  | 10.6 µM (inactive)
14 | O=C(/C=C(\O)C(=O)O)/C=C(\O)c1ccccc1 | > 4.65 µM (inactive) |  | > 100 µM (inactive) | > 4.65 µM (inactive) | > 4.65 µM (inactive) | > 4.65 µM (inactive) | > 4.65 µM (inactive) |  | > 4.65 µM (inactive) | > 4.65 µM (inactive) | > 100 µM (inactive) |  |  | > 4.65 µM (inactive) | > 4.65 µM (inactive) | 
15 | O=[N+]([O-])c1cccc(C(O)/C(=N/Nc2ccccc2)C2Nc3ccc([N+](=O)[O-])cc3N=C2O)c1 (stereo unspecified) | > 100 µM (inactive) | 13.2 µM (inactive) |  |  | 49.3 µM (inactive) | > 100 µM (inactive) | > 100 µM (inactive) | 49.3 µM (inactive) | > 100 µM (inactive) | > 100 µM (inactive) | > 100 µM (inactive) | 19.7 µM (inactive) | 95.9 µM (inactive) | 41.2 µM (inactive) | > 100 µM (inactive) | 43 µM (inactive)
16 | COC(=O)CCC(=O)C(C#N)c1ccc(Cl)cc1Cl (stereo unspecified) | > 100 µM (inactive) | > 100 µM (inactive) | > 100 µM (inactive) |  | > 100 µM (inactive) | > 100 µM (inactive) |  |  | > 100 µM (inactive) | > 100 µM (inactive) |  | > 100 µM (inactive) | > 100 µM (inactive) | > 100 µM (inactive) | > 100 µM (inactive) | > 100 µM (inactive)
17 | CCOC(=O)NC(=O)c1cn(CCCOC(=O)CCCCCCCCCCC(=O)OCCCn2cc(C(=O)NC(=O)OCC)c(=O)[nH]c2=O)c(=O)[nH]c1=O | > 100 µM (inactive) | > 100 µM (inactive) | > 100 µM (inactive) |  | > 100 µM (inactive) | > 100 µM (inactive) | > 100 µM (inactive) | > 100 µM (inactive) | > 100 µM (inactive) | 49 µM (inactive) | > 100 µM (inactive) |  | > 100 µM (inactive) | > 100 µM (inactive) | > 100 µM (inactive) | > 100 µM (inactive)
18 | CC(C)OP(=O)(OC(C)C)/C(N)=N/Nc1ccc([N+](=O)[O-])cc1 | 53 µM (inactive) | > 100 µM (inactive) | > 100 µM (inactive) |  | > 100 µM (inactive) | > 100 µM (inactive) | > 100 µM (inactive) | > 100 µM (inactive) | 25.4 µM (inactive) | 77.4 µM (inactive) | > 100 µM (inactive) | 68.7 µM (inactive) | > 100 µM (inactive) | 76.2 µM (inactive) | 25.1 µM (inactive) | > 100 µM (inactive)
19 | O=C(Cc1nc2ccccc2s1)Nc1cccc(C(F)(F)F)c1 | 21.8 µM (inactive) | 18.8 µM (inactive) |  | 5.3 µM (inactive) | 19.2 µM (inactive) | 13.1 µM (inactive) | 17.9 µM (inactive) | 18.5 µM (inactive) | 22.2 µM (inactive) | 16.9 µM (inactive) | 18.1 µM (inactive) | 14.1 µM (inactive) | 16.6 µM (inactive) | 21 µM (inactive) | 14.4 µM (inactive) | 7.5 µM (inactive)
20 | c1ccc(C2N3CCCCC3[C@@H]3c4[nH]c5ccccc5c4CCN23)nc1 (stereo partly specified) |  | > 100 µM (inactive) |  | > 100 µM (inactive) | > 100 µM (inactive) |  | > 100 µM (inactive) | > 100 µM (inactive) | > 100 µM (inactive) | > 100 µM (inactive) | > 100 µM (inactive) |  |  | > 100 µM (inactive) | > 100 µM (inactive) | > 100 µM (inactive)
